Measured values from article PMC9304199, “A small molecule CFTR potentiator restores ATP‐dependent channel gating to the cystic fibrosis mutant G551D‐CFTR” (British Journal of Pharmacology, 2022).

Key:
[1] = biological target: T1, native CFTR, genotype F508del/G551D (Homo sapiens, UniProt P13569, G551D); assay: Ussing chamber CFTR-mediated short-circuit current (Isc) in F508del/G551D human bronchial epithelial cells; assay type: cell-based; details: for EC50: F508del/G551D epithelia of hBE cells, Isc, 35°C, read-out: EC50 (μM) (95% CI); for Emax: HBE, read-out: Maximal effect (%) (95% CI)
T1 construct: For functional studies of native CFTR, we used primary cultures of human bronchial epithelial cells; host or cells: primary human bronchial epithelial cells, F508del/G551D, air-liquid interface cultures, studied at 35°C
T1 sequence (P13569 whole entry F508del/G551D): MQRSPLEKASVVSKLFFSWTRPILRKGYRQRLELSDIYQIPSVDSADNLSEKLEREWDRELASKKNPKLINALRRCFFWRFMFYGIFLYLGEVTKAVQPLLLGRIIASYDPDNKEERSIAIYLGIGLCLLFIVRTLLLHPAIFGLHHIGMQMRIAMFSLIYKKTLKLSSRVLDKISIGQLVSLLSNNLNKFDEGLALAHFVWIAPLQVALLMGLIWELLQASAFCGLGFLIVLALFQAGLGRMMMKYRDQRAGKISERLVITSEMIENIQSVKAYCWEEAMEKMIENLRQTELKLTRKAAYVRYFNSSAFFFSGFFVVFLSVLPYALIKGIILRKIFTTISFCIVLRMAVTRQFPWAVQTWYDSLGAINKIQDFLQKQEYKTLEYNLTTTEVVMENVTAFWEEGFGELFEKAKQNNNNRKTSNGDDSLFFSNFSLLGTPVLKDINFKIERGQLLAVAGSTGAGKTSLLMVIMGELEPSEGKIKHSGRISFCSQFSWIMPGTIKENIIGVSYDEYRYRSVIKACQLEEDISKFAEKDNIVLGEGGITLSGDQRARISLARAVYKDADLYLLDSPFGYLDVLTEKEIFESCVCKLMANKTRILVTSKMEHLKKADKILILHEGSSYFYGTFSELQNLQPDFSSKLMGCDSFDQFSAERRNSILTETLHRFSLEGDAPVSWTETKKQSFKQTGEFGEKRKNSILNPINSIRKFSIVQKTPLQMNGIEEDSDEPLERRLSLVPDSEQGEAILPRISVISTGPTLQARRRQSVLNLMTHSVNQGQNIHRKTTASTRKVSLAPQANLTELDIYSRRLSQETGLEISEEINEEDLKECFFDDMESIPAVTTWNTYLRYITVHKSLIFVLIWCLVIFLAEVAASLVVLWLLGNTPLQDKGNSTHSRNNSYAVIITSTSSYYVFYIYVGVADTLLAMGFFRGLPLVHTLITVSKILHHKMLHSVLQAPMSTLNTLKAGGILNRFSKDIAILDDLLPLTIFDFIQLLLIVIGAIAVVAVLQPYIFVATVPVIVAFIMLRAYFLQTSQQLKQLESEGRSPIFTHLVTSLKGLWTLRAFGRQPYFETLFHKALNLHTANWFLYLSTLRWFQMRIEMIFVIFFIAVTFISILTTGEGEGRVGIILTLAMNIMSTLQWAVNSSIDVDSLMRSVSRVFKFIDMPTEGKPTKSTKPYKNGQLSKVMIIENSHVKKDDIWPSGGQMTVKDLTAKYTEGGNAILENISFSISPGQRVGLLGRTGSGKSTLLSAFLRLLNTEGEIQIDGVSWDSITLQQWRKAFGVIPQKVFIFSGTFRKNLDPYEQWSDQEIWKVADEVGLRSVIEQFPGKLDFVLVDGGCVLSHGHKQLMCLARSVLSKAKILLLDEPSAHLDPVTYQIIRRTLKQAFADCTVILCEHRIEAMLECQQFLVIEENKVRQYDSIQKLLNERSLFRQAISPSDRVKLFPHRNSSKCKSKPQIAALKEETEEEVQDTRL
Excerpt: For functional studies of native CFTR, we used primary cultures of human bronchial epithelial cells of genotypes F508del/F508del and F508del/G551D. Passage 1 (P1) human bronchial epithelial cells from SH Randell (University of North Carolina [UNC] Cystic Fibrosis Center Tissue Procurement and Cell Culture Core) were differentiated at an air–liquid interface as described by Neuberger et al., ([2011]) with some modifications. The research conducted on human cells at UNC has been verified as compliant with Pfizer policies, including institutional review board or institutional ethics committee approval. Cells were thawed and expanded in BEGM™ Bronchial Epithelial Cell Growth Medium (cat. no. CC‐3170, Lonza, USA) supplemented with retinoic acid (10 nM) and banked at P2. For functional assays, P2 cells were expanded to P4, and 5 × 10^5 P4 human bronchial epithelial cells were seeded in growth medium on Snapwell filter inserts (cat. no. 3801, Corning, NY, USA). Cells were switched to differentiation medium the following day and cultured submerged for 3 days before the medium was removed from the apical membrane to establish an air–liquid interface. Thereafter, the basolateral medium was changed every 2–3 days and mucus washed from the apical membrane every 2–3 weeks and the day prior to use starting 21 days after initiating air–liquid interface culture.
After >30 days of air–liquid interface culture on Snapwell filter inserts, human bronchial epithelial cells formed well differentiated, electrically tight epithelia (Rt > 200 Ω cm^2). Prior to study, F508del/F508del and F508del/G551D human bronchial epithelial cell cultures were incubated at 37°C and 5% CO2.
Epithelia were mounted in Ussing chambers and data acquired and analysed as described above for Ussing chamber studies of FRT cells heterologously expressing CFTR with the following exceptions. Both the apical and basolateral membranes were bathed in solutions containing (mM): 137 NaCl, 4 KCl, 1.8 CaCl2, 1 MgCl2, 10 Na HEPES, and 10 glucose (pH 7.4 with NaOH). Epithelia of F508del/G551D human bronchial epithelial cells were studied at 35°C, whereas those of F508del/F508del human bronchial epithelial cells were assayed at 27°C to maintain the apical membrane expression of F508del‐CFTR. After cancelling voltage offsets, transepithelial voltage was clamped at 0 mV and short‐circuit current (Isc) recorded continuously. The protocol to record CFTR‐mediated Isc was the same as for ICl ^apical measurements except that amiloride (30 μM, apical solution) was added to inhibit the epithelial Na^+ channel before forskolin (10 μM, apical and basolateral solutions) addition.

[2] = biological target: F508del‐CFTR (Homo sapiens, UniProt P13569, DEL508-508); assay: F508del‐CFTR plasma membrane stability in FRT epithelia (Ussing chamber Isc after cycloheximide); assay type: cell-based; set-up: expressed in transfected cells; BHK cells from MD Amaral; details: for acute potentiation of forskolin-stimulated CFTR-mediated Isc: DMSO-treated low temperature-rescued F508del‐CFTR FRT epithelia, t = 0 h, forskolin 10 μM, ivacaftor 1 μM, then CP‐628006 10 μM
F508del‐CFTR, sequence (P13569 with tags, fused parts or gaps DEL508-508): as the sequence (P13569 whole entry F508del/G551D) above, with D550G counted along it
Experimental: To evaluate the effects of CP‐628006 on the plasma membrane stability of F508del‐CFTR, we used a modification of the method described by Meng et al. ([2017]). After 48‐h incubation at 27°C to rescue the plasma membrane expression of F508del‐CFTR, FRT epithelia were treated with cycloheximide (50 μg·ml^−1) and DMSO or test small molecules, 15 min prior to t = 0 h. At t = 0, 2, 4, and 6 h after these treatments, F508del‐CFTR expressing FRT epithelia were mounted in Ussing chambers (Warner Instrument Corp., Dual Channel Chamber; Harvard Apparatus Ltd., Edenbridge, UK) and Isc responses recorded.
CFTR‐mediated Isc was recorded using a large Cl^− concentration gradient without permeabilizing the basolateral membrane. The solution bathing the basolateral membrane contained (mM): 140 NaCl, 5 KCl, 0.36 K2HPO4, 0.44 KH2PO4, 1.3 CaCl2, 0.5 MgCl2, 10 HEPES, and 4.2 NaHCO3, adjusted to pH 7.2 with Tris ([Cl^−], 149 mM). The solution bathing the apical membrane was identical to that of the basolateral solution with the exception that (mM): 133.3 Na gluconate + 2.5 NaCl and 5 K gluconate replaced 140 NaCl and 5 KCl, respectively, ([Cl^−], 14.8 mM). To compensate for the calcium buffering capacity of gluconate, we used 5.7‐mM Ca^2+ in the apical solution. All solutions were maintained at 37°C and bubbled continuously with 5% CO2.
After cancelling voltage offsets, we clamped transepithelial voltage (referenced to the basolateral solution) at 0 mV and recorded Isc continuously using an epithelial voltage‐clamp amplifier (Warner Instrument Corp., model EC‐825; Harvard Apparatus Ltd.), digitising data as described previously (Li et al., [2004]). The resistance of the filter and solutions, in the absence of cells, was subtracted from all measurements.

| Compound | EC50 [1] [µM] | Emax [1] [%] | acute potentiation of forskolin-stimulated CFTR-mediated Isc [2] | decline of CFTR-mediated Isc over 6 h ([2]; low temperature-rescued F508del‐CFTR FRT epithelia treated with cycloheximide 50 μg·ml−1 and compound 10 μM, 37°C) |
| --- | --- | --- | --- | --- |
| Cc1ncccc1CNC(=O)c1ccc2c(c1)CC[C@H]1C[C@](O)(CCC(F)(F)F)CC[C@]21Cc1ccccc1 (racemic) [CP‐628006, rac‐(4bR,7R,8aS)‐4b‐benzyl‐7‐hydroxy‐N‐((2‐methylpyridin‐3‐yl)methyl)‐7‐(3,3,3‐trifluoropropyl)‐4b,5,6,7,8,8a,9,10‐octahydrophenanthrene‐2‐carboxamide] | 0.14 | 18 | had little additional effect | slower |
| CC(C)(C)c1cc(C(C)(C)C)c(NC(=O)c2c[nH]c3ccccc3c2=O)cc1O [ivacaftor, reference compound] | 0.005 | 103 | potentiated two‐fold |  |
